Target: T1, ALK2 (Homo sapiens, UniProt Q04771)
T1 construct: purchased ThermoFisher Scientific (Life Technologies)
T1 sequence (Q04771 21-509): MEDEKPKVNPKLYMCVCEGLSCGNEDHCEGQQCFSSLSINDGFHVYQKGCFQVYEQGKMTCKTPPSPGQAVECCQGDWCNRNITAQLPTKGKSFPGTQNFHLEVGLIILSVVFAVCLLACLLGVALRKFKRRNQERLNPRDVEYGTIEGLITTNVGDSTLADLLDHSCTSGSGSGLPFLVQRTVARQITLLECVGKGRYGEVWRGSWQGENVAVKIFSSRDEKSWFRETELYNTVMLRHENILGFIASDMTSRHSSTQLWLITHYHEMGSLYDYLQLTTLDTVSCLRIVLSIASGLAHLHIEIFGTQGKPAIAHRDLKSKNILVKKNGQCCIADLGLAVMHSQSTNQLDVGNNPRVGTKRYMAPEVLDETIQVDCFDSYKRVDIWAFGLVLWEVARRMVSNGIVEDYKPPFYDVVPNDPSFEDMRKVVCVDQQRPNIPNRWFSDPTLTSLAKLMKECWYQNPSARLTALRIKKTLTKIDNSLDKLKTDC
Experiment: LanthaScreen Eu Kinase Binding Assay, ALK2 inhibition
Conditions: 1 micromolar concentration
Method: Biochemical assays to measure the inhibitory effects of the compounds were performed by ThermoFisher Scientific (Life Technologies). ALK2 inhibition was tested using LanthaScreen™ Eu Kinase Binding Assay screening protocol.

| SMILES | inhibition at 1 µM |
| --- | --- |
| CC[C@@H](C)n1ncc2c(Nc3cn(-c4cc(OC)c(OC)c(OC)c4)cn3)nc(C(C)C)nc21 (single isomer, unassigned) [Compound 19d] | > 50% |
| CC[C@H](C)n1ncc2c(Nc3cn(-c4cc(OC)c(OC)c(OC)c4)cn3)nc(C(C)C)nc21 (single isomer, unassigned) [Compound 22d] | > 50% |
| COc1cc(-n2cnc(Nc3nc(C(C)C)nc4c3cnn4-c3ccc(F)cc3)c2)cc(OC)c1OC [Compound 1f, 1-(4-fluorophenyl)-6-isopropyl-N-(1-(3,4,5-trimethoxyphenyl)-1H-imidazol-4-yl)-1H-pyrazolo[3,4-d]pyrimidin-4-amine] | > 50% |
| COc1cc(-n2cnc(Nc3nc(C(C)C)nc4c3cnn4C(C)(C)C)c2)cc(OC)c1OC [Compound 2d, 1-(tert-butyl)-6-isopropyl-N-(1-(3,4,5-trimethoxyphenyl)-1H-imidazol-4-yl)-1H-pyrazolo[3,4-d]pyrimidin-4-amine] | > 50% |
| C=C(C)c1nc(Nc2cn(-c3cc(OC)c(OC)c(OC)c3)cn2)c2cnn(C(C)C)c2n1 [Compound 3d, 1-isopropyl-6-(prop-1-en-2-yl)-N-(1-(3,4,5-trimethoxyphenyl)-1H-imidazol-4-yl)-1H-pyrazolo[3,4-d]pyrimidin-4-amine] | > 50% |
| COc1cc(-n2cnc(Nc3nc(C(C)C)nc4c3cnn4C(C)C)c2)cc(OC)c1OC [Compound 4a, 1,6-diisopropyl-N-(1-(3,4,5-trimethoxyphenyl)-1H-imidazol-4-yl)-1H-pyrazolo[3,4-d]pyrimidin-4-amine] | > 50% |
| COc1cc(-n2cnc(Nc3nc(C=C(C)C)nc4c3cnn4C(C)C)c2)cc(OC)c1OC [Compound 5b, 1-isopropyl-6-(2-methylprop-1-en-1-yl)-N-(1-(3,4,5-trimethoxyphenyl)-1H-imidazol-4-yl)-1H-pyrazolo[3,4-d]pyrimidin-4-amine] | > 50% |
| COc1cc(-n2cnc(Nc3nc(CC(C)C)nc4c3cnn4C(C)C)c2)cc(OC)c1OC [Compound 6a, 6-isobutyl-1-isopropyl-N-(1-(3,4,5-trimethoxyphenyl)-1H-imidazol-4-yl)-1H-pyrazolo[3,4-d]pyrimidin-4-amine] | > 50% |
| COc1cc(-n2cnc(Nc3nc(C4CC4)nc4c3cnn4C(C)C)c2)cc(OC)c1OC [Compound 7e, 6-cyclopropyl-1-isopropyl-N-(1-(3,4,5-trimethoxyphenyl)-1H-imidazol-4-yl)-1H-pyrazolo[3,4-d]pyrimidin-4-amine] | > 50% |
| COc1cc(-n2cnc(Nc3nc(C(C)C)c4cnn(C(C)C)c4n3)c2)cc(OC)c1OC [Compound 8b, 1,4-diisopropyl-N-(1-(3,4,5-trimethoxyphenyl)-1H-imidazol-4-yl)-1H-pyrazolo[3,4-d]pyrimidin-6-amine] | > 50% |
| COc1cc(-n2cnc(Nc3nc(C(C)(C)C)c4cnn(C(C)C)c4n3)c2)cc(OC)c1OC [Compound 9b, 4-(tert-butyl)-1-isopropyl-N-(1-(3,4,5-trimethoxyphenyl)-1H-imidazol-4-yl)-1H-pyrazolo[3,4-d]pyrimidin-6-amine] | > 50% |
| COc1cc(-n2cnc(Nc3nc(C)c4cnn(C(C)C)c4n3)c2)cc(OC)c1OC [Compound 11b, 1-isopropyl-4-methyl-N-(1-(3,4,5-trimethoxyphenyl)-1H-imidazol-4-yl)-1H-pyrazolo[3,4-d]pyrimidin-6-amine] | > 50% |
| COc1cc(-n2cnc(Nc3nc(C4CCCCC4)c4cnn(C(C)C)c4n3)c2)cc(OC)c1OC [Compound 12b, 4-cyclohexyl-1-isopropyl-N-(1-(3,4,5-trimethoxyphenyl)-1H-imidazol-4-yl)-1H-pyrazolo[3,4-d]pyrimidin-6-amine] | > 50% |
| COc1cc(-n2cnc(Nc3nc(C4CC4)c4cnn(C(C)C)c4n3)c2)cc(OC)c1OC [Compound 13b, 4-cyclopropyl-1-isopropyl-N-(1-(3,4,5-trimethoxyphenyl)-1H-imidazol-4-yl)-1H-pyrazolo[3,4-d]pyrimidin-6-amine] | > 50% |
| COc1cc(-n2cnc(Nc3nc(C(C)C)nc4c3cnn4C3CC3)c2)cc(OC)c1OC [Compound 14f, 1-cyclopropyl-6-isopropyl-N-(1-(3,4,5-trimethoxyphenyl)-1H-imidazol-4-yl)-1H-pyrazolo[3,4-d]pyrimidin-4-amine] | > 50% |
| CCCC(C)n1ncc2c(Nc3cn(-c4cc(OC)c(OC)c(OC)c4)cn3)nc(C(C)C)nc21 (stereo not shown) [Compound 15e, 6-isopropyl-1-(pentan-2-yl)-N-(1-(3,4,5-trimethoxyphenyl)-1H-imidazol-4-yl)-1H-pyrazolo[3,4-d]pyrimidin-4-amine] | > 50% |
| CCCCCn1ncc2c(Nc3cn(-c4cc(OC)c(OC)c(OC)c4)cn3)nc(C(C)C)nc21 [Compound 16c, 6-isopropyl-1-pentyl-N-(1-(3,4,5-trimethoxyphenyl)-1H-imidazol-4-yl)-1H-pyrazolo[3,4-d]pyrimidin-4-amine] | > 50% |
| COc1cc(-n2cnc(Nc3nc(C(C)C)nc4c3cnn4CC3CC3)c2)cc(OC)c1OC [Compound 17c, 1-(cyclopropylmethyl)-6-isopropyl-N-(1-(3,4,5-trimethoxyphenyl)-1H-imidazol-4-yl)-1H-pyrazolo[3,4-d]pyrimidin-4-amine] | > 50% |
| COc1cc(-n2cnc(Nc3nc(C(C)C)nc4c3cnn4C3CCCC3)c2)cc(OC)c1OC [Compound 18c, 1-cyclopentyl-6-isopropyl-N-(1-(3,4,5-trimethoxyphenyl)-1H-imidazol-4-yl)-1H-pyrazolo[3,4-d]pyrimidin-4-amine] | > 50% |
| COc1cc(-n2cnc(Nc3nc(C(C)C)nc4c3cnn4CC(C)C)c2)cc(OC)c1OC [Compound 20c, 1-isobutyl-6-isopropyl-N-(1-(3,4,5-trimethoxyphenyl)-1H-imidazol-4-yl)-1H-pyrazolo[3,4-d]pyrimidin-4-amine] | > 50% |
| COc1cc(-n2cnc(Nc3nc(C(C)C)nc4c3cnn4C3CCOC3)c2)cc(OC)c1OC (stereo not shown) [Compound 21c, 6-isopropyl-1-(tetrahydrofuran-3-yl)-N-(1-(3,4,5-trimethoxyphenyl)-1H-imidazol-4-yl)-1H-pyrazolo[3,4-d]pyrimidin-4-amine] | > 50% |
| CCn1ncc2c(Nc3cn(-c4cc(OC)c(OC)c(OC)c4)cn3)nc(C(C)C)nc21 [Compound 23c, 1-ethyl-6-isopropyl-N-(1-(3,4,5-trimethoxyphenyl)-1H-imidazol-4-yl)-1H-pyrazolo[3,4-d]pyrimidin-4-amine] | > 50% |
| COc1cc(-n2cnc(Nc3nc(C(C)C)nc4c3cnn4CC3CCCC3)c2)cc(OC)c1OC [Compound 24c, 1-(cyclopentylmethyl)-6-isopropyl-N-(1-(3,4,5-trimethoxyphenyl)-1H-imidazol-4-yl)-1H-pyrazolo[3,4-d]pyrimidin-4-amine] | > 50% |
| COc1cc(-n2cnc(Nc3nc(C(F)(F)F)nc4[nH]ncc34)c2)cc(OC)c1OC [Compound 25b, 6-(trifluoromethyl)-N-(1-(3,4,5-trimethoxyphenyl)-1H-imidazol-4-yl)-1H-pyrazolo[3,4-d]pyrimidin-4-amine] | > 50% |
| COc1cc(-n2cnc(Nc3nc(C(F)(F)F)nc4c3cnn4C(C)C)c2)cc(OC)c1OC [Compound 26a, 1-isopropyl-6-(trifluoromethyl)-N-(1-(3,4,5-trimethoxyphenyl)-1H-imidazol-4-yl)-1H-pyrazolo[3,4-d]pyrimidin-4-amine] | > 50% |
